Measurements published in article PMC4374918, “Interaction of ATP with a Small Heat Shock Protein from Mycobacterium leprae: Effect on Its Structure and Function” (PLoS Neglected Tropical Diseases, 2015).

Columns and labels:
HSP18 [1] = target: T1, HSP18 (Mycobacterium leprae, UniProt P12809); experiment: SPR (Biacore T200, HSP18 immobilized on CM5 chip); also TNP-ATP displacement and thermal stabilization; format: binding
T1 construct: recombinant wild-type M. leprae HSP18

HSP18 [2] = target: T1, HSP18; experiment: SPR (Biacore T200, HSP18 immobilized on CM5 chip); format: binding
HSP18 [3] = target: T1, HSP18; experiment: fluorescence titration, Scatchard analysis; format: binding
[4] = target: the molecule itself; experiment: dynamic light scattering; HSP18 0.5 mg/ml in 50 mM phosphate buffer pH 7.5, 25°C, with or without 1 mM ATP; hydrodynamic radius of the oligomers

For Nc1ncnc2c1ncn2[C@@H]1O[C@H](COP(=O)(O)OP(=O)(O)OP(=O)(O)O)[C@@H](O)[C@H]1O [ATP], the Kd (HSP18 [1]) was 0.59 µM.

With Nc1ncnc2c1ncn2[C@@H]1O[C@H](CO[P@](=O)(O)O[P@](=O)(O)O[P@@](=O)(O)S)[C@@H](O)[C@H]1O [ATP-γS] the Kd (HSP18 [2]) was 0.33 µM.

Nc1ncnc2c1ncn2[C@@H]1O[C@H](COP(=O)(O)OP(=O)(O)OP(=O)(O)O)[C@H]2OC3(O[C@H]21)C([N+](=O)[O-])=CC(=[N+]([O-])[O-])C=C3[N+](=O)[O-] (stereo partly shown) [TNP-ATP] was tested, and the Kd (HSP18 [3]) was 0.73 µM.

B1: Mycobacterium leprae HSP18 (18 kDa antigen, small heat shock protein) (natural protein, UniProt P12809 1-148, looked up)
chain: MLMRTDPFRELDRFAEQVLGTSARPAVMPMDAWREGEEFVVEFDLPGIKADSLDIDIERNVVTVRAERPGVDPDREMLAAERPRGVFNRQLVLGENLDTERILASYQEGVLKLSIPVAERAKPRKISVDRGNNGHQTINKTAHEIIDA
notes: M. leprae HSP18 (18 kDa antigen), wild-type; source: recombinant wild-type, expressed and purified as described previously [5]; copies: 29
B1: binds [4].
